We go through 1 compound from patent US8691799B2, “Materials and methods for treatment of cancer and identification of anti-cancer compounds” (priority 2001, dated 2014).

Series [1] concerns STAT3-dependent pLucTKS3 luciferase reporter. Kind of series: STAT3-dependent luciferase reporter assay in v-Src/NIH 3T3 fibroblasts. The conditions noted are these: 10 μM, 24-48 hr. Type of series: cell-based, murine. From the text:
DNA Binding and Transcription. The STAT3 reporter, pLucTKS3, driving expression of firefly luciferase has been previously described (Turkson, J. et al. Mol. Cell Biol., 1999, 19:7519-7528). The pLucTKS3 plasmid harbors seven copies of a sequence corresponding to the STAT3-specific binding site in the promoter of the human C-reactive protein gene (Zhang, D. et al. J. Biol. Chem., 1996, 271:9503-9509). The STAT3-independent plasmid, pRLSRE, contains two copies of the serum response element (SRE) from the c-fos promoter (Yamauchi, K. et al. J. Biol. Chem., 1993, 268:14597-14600), subcloned into renilla luciferase reporter, pRL-null (Promega Corporation, Madison, Wis.).
Transfection and Generation of Stable Clones. […]
Preparation of Cytosolic Extracts. […] Cells were resuspended in 0.4 ml of low-salt HEPES buffer (10 mM HEPES, pH 7.8, 10 mM KCl, 0.1 mM EGTA, 0.1 mM EDTA, 1 mM PMSF, and 1 mM DTT) for 15 min, lysed by the addition of 20 μl of 10% NP-40, and centrifuged (10,000×g, 30 sec, 4° C.) to obtain the cytosolic supernatant, which was used for luciferase assays (Promega Corporation) measured with a luminometer.

The conditions of series [2]: personal communication; cited from earlier work.
A further series concerns B16-F10 melanoma. Kind of series: Mouse survival, B16-F10 melanoma in C57 black mice. The class given is in vivo. The conditions noted are these: 1 mg/Kg/day for 25 days, B16-F10 s.c. An excerpt:
(§1) Antitumor Activity in the Nude Mouse Tumor Xenograft Model. Nude mice and C57 BL-6 black mice (National Cancer Institute, Bethesda, Md.) were maintained in accordance with the Institutional Animal Care and Use Committee (IACUC) procedures and guidelines. v-Src- and oncogenic H-Ras-transformed NIH 3T3, A549, MDA-MB-468 and Calu-1 cells were harvested, resuspended in PBS and injected s.c. into the right and left flank (10×10^6 cells per flank) of 8 week old female nude mice as reported previously (Sun, J. et al. Cancer Res., 1999, 59:4919-4926). Similarly, murine B16-F10 Melanoma cells were injected s.c. into the right and left flank (10^6 cells per flank) of C57 black mice. When tumors reached about 150 mm^3, animals were randomized (five animals per group; two tumors per animal) and dosed i.p. with 0.2 ml once daily. Control animals received DMSO (20%) vehicle whereas treated animals were injected with JSI-124 (1 mg/kg/day) in 20% DMSO in water. The tumor volumes were determined by measuring the length (l) and the width (w) and calculating the volume (V=1w^2/2) as described previously (Sun, J. et al. Cancer Res., 1999, 59:4919-4926). Statistical significance between control and treated animals were evaluated by using Student's t-test. For the mouse survival experiments, C57 BL-6 black mice were implanted s.c. with B16-F10 cells (10^5 to 10^6 cells per flank). On day 5 after implantation the mice were randomized (6 animals per group) and treated with either vehicle or JSI-124 (1 mg/Kg/day) for 25 days. Percent surviving mice was determined by monitoring the death of mice until all mice died. Two experiments of 12 animals each (6 control and 6 treated with JSI-124) were carried out. For statistical analysis: for each of the two experiments, mice receiving JSI-124 were compared to those receiving vehicle control with respect to survival using the permutation log rank test as implemented in the statistical software package, ProcStatXact (p-values are two sided and exact).

For the next series, the system named is v-Src/NIH 3T3 tumors. Kind of series: Antitumor activity, v-Src-transformed NIH 3T3 tumors in nude mice. Type of series: in vivo.
Text: as §1, with “[…] […]” for “When tumors reached about 150 mm^3, animals were randomized (five animals per group; two tumors per animal) and dosed i.p. with 0.2 ml once daily. Control animals received DMSO (20%) vehicle whereas treated animals were injected with JSI-124 (1 mg/kg/day) in 20% DMSO in water.”, “On day 5 after implantation the mice were randomized (6 animals per group) and treated with either vehicle or JSI-124 (1 mg/Kg/day) for 25 days.” left out

Each structure is given as a SMILES string.

Take `CC(C)(O)/C=C/C(=O)[C@](C)(O)[C@H]1[C@H](O)C[C@@]2(C)[C@@H]3CC=C4[C@@H](C=C(O)C(=O)C4(C)C)[C@]3(C)C(=O)C[C@]12C` [JSI-124, cucurbitacin I]: the “induction of STAT3-dependent pLucTKS3 luciferase reporter” value in series [1] was “significantly suppresses”. In addition, the “edema at the subcutaneous site of injection (NCI Developmental Therapeutics Program)” value in series [2] is reported as “edema was observed at the subcutaneous site of injection”. In the series with B16-F10 melanoma, the “T50 (day until which 50% of mice survived)” value came out at 34 days, the “T50 increase versus vehicle” value is listed as 13 days, the “day by which all mice died” value came out at 42 days and the “day by which none of the treated mice were dead” value is 23 days. Besides, in the series on v-Src/NIH 3T3 tumors (1 mg/Kg/day intraperitoneally), the “inhibition of growth of v-src transformed NIH 3T3 tumors (in words)” value is “inhibits tumor growth”. For the same compound, in the series with v-Src/NIH 3T3 tumors (1 mg/kg/day i.p.), the “inhibition of growth of v-Src/NIH 3T3 tumors” value worked out at 64%.
